Source: patent US20220257593A1, “CARABACHOL-BROMONIDINE FORMULATION TO ENHANCE ANTI-PRESBYOPIA EFFECTS” (Visus Therapeutics, Inc., priority 2019, published 2022)
Several values for one entry are separate records, joined by “and”; a condition that tells them apart may be missing. Equal entries are not always repeated. Entries after “also recorded” stand apart in the source; their conditions may differ. Where two headings read alike, the source gives them in different places. One block for each molecule: values may come before it.

What was measured:
[1] = test system: emmetropic and presbyopic subjects, non-dominant eye; assay: Examples 7 and 13 crossover trial: near visual acuity, combined vs separate 3% carbachol and 0.2% brimonidine, carbachol alone, brimonidine alone; type: in vivo, human; details: for NVA (mean near visual acuity): mean ± SD, ten subjects, pre-treatment 8.6 ± 1.5
Experimental: Participants were volunteers selected at random.
(§1) A prospective, double-masked, randomized, controlled clinical trial was conducted.
Participants were randomly selected volunteers.
(§2) The 3% carbachol drops included 50 ppm of benzalkonium chloride.

[2] = test system: emmetropic and presbyopic subjects, non-dominant eye; assay: Examples 7 and 13 crossover trial: pupil size (Colvard infrared pupilometer); type: in vivo, human; details: for PS (mean pupil size): mean ± SD, ten subjects, pre-treatment 4.3 ± 0.5
Experimental: as §1, §2

[3] = test system: presbyopic subjects, non-dominant eye; assay: Example 8 dose range studies of carbachol and pilocarpine with and without brimonidine: near visual acuity (LogMAR) and pupil diameter; type: in vivo, human; details: for change in LogMAR VA, pilocarpine vs carbachol, each plus 0.2% brimonidine: FIGS. 12 and 13
Experimental: Dose range studies were performed for carbachol and pilocarpine. […] Pilocarpine and carbachol were also compared to each other, with and without brimonidine.

[4] = test system: presbyopic subjects; assay: Example 8 dose range studies: tolerability, adverse symptoms and satisfaction survey
Text: Both Groups 1 and 2 received the same pre- and post-treatment work-up and measurements: Age, gender, initial pupil size, and near vision acuity (NVA) were documented.
The survey asked the patients whether they would use the drops again.

[5] = Example 8: stability of pilocarpine at neutral pH; type: physicochemical; details: needs about pH 5
[6] = FDA product insert for isoptocarpine; cited from earlier work
[7] = test system: emmetropic, myopic and hyperopic presbyopes
[8] = test system: presbyopic subjects; details: subjects receiving brimonidine drops

SMILES: C[N+](C)(C)CCOC(N)=O [3% carbachol alone, carbachol]
NVA (mean near visual acuity) ([1]; 1-h post-treatment): 5.5 ± 1 J
NVA (mean near visual acuity) ([1]; 2-h post-treatment): 5.9 ± 0.8 J
NVA (mean near visual acuity) ([1]; 4-h post-treatment): 7 ± 1.2 J
NVA (mean near visual acuity) ([1]; 8-h post-treatment): 7.5 ± 1 J
mean near visual acuity (NVA) ([1]; 1 h post-treatment, before treatment J 8.6±1.5, 10 subjects crossover): 5.5 ± 1 J
mean near visual acuity (NVA) ([1]; 2 h post-treatment): 5.9 ± 0.8 J
mean near visual acuity (NVA) ([1]; 4 h post-treatment): 7 ± 1.2 J
mean near visual acuity (NVA) ([1]; 8 h post-treatment): 7.5 ± 1 J
hours in which mean near visual acuity (NVA) was ≥20/40 ([1]; emmetropic presbyopes, FIG. 25): never achieved an NVA of ≥20/40
PS (mean pupil size) ([2]; 1-h post-treatment): 2.8 ± 0.3 mm
PS (mean pupil size) ([2]; 2-h post-treatment): 3 ± 0.3 mm
PS (mean pupil size) ([2]; 4-h post-treatment): 3.5 ± 0.3 mm
PS (mean pupil size) ([2]; 8-h post-treatment): 4 ± 0.3 mm
mean pupil size (PS) ([2]; 1 h post-treatment, before treatment 4.3±0.5 mm): 2.8±0.3 mm
mean pupil size (PS) ([2]; 2 h post-treatment): 3±0.3 mm
mean pupil size (PS) ([2]; 4 h post-treatment): 3.5±0.3 mm
mean pupil size (PS) ([2]; 8 h post-treatment): 4±0.3 mm
hours in which mean pupil size reached the target pupil size of <2.5 mm ([2]; emmetropic presbyopes, FIG. 24): never achieved the target pupil size during hours 1-8

SMILES: C[N+](C)(C)CCOC(N)=O [carbachol, reference compound]
change in LogMAR VA, pilocarpine vs carbachol, each plus 0.2% brimonidine [3]: favored carbachol for hours 8 and 10
duration of effect ([3]; in vivo): 8 h
dose response for tolerability ([4]; carbachol […], […], 3% plus brimonidine, seven days, FIG. 15): An inverse dose response

SMILES: CC[C@@H]1C(=O)OC[C@@H]1Cc1cncn1C [pilocarpine, reference compound]
change in LogMAR VA, pilocarpine vs carbachol, each plus 0.2% brimonidine [3]: favored pilocarpine for hours 1 and 2
onset and duration of effect ([3]; compared with carbachol): more immediate effect; also recorded: shorter duration
burning ([4]; in vivo): burned
stability at neutral pH [5]: unstable at neutral pH
brow ache rate [6]: > 5%

mild burning sensation, number of subjects [8]: 10 subjects
SMILES: Brc1c(NC2=NCCN2)ccc2nccnc12 [Brimonidine 0.2%, brimonidine]
NVA (mean near visual acuity) ([1]; 1-h post-treatment): 7.7 ± 1.3 J
NVA (mean near visual acuity) ([1]; 2-h post-treatment): 8.2 ± 1.3 J
NVA (mean near visual acuity) ([1]; 4-h post-treatment): 8.5 ± 1.4 J
NVA (mean near visual acuity) ([1]; 8-h post-treatment): 8.6 ± 1.5 J
difference in mean NVA before treatment and at any time point after treatment ([1]; P >0.05): no statistically significant difference
mean change / improvement in near visual acuity compared among combination, separate drops, carbachol alone, brimonidine alone ([1]; over eight hours): the least
PS (mean pupil size) ([2]; 1-h post-treatment): 3.95 ± 0.5 mm
PS (mean pupil size) ([2]; 2-h post-treatment): 4.2 ± 0.4 mm
PS (mean pupil size) ([2]; 4-h post-treatment): 4.3 ± 0.5 mm
PS (mean pupil size) ([2]; 8-h post-treatment): 4.3 ± 0.5 mm
effect on pupil size or NVA ([2]; 50 ppm benzalkonium chloride): virtually no effect
difference in mean PS before treatment and at any time point after treatment ([2]; P >0.05): no statistically significant difference
miotic effect ([2]; first hour after instillation, light luminance conditions, not significant (P >0.05)): mild miotic effect
synergy with carbachol and pilocarpine ([3]; 0.2% brimonidine): synergistic with both carbachol and pilocarpine
difference in mean NVA before treatment and at any time point after treatment ([7]; Group 1 emmetropic presbyopes): No statistically significant difference in mean NVA
difference in mean NVA before treatment and at any time point after treatment ([7]; Group 2 myopic presbyopes): No statistically significant difference in mean NVA
difference in mean NVA before treatment and at any time point after treatment ([7]; Group 3 hyperopic presbyopes): No statistically significant difference in mean NVA

SMILES: CC[C@@H]1C(=O)OC[C@@H]1Cc1cncn1C [Pilo Alone]
Pilo Alone 1 hr nVA ([3]; Pilo 0.5%, individual patients): 3 J and 6 J and 5 J
Pilo Alone 1 hr pupil ([3]; Pilo 0.5%, individual patients): 3.8 and 3 (2×)
Pilo Alone 2 hrs nVA ([3]; Pilo 0.5%, individual patients): 5 J (2×) and 3 J (2×)
Pilo Alone 2 hrs pupil ([3]; Pilo 0.5%, individual patients): 3 and 4 and 2.5 and 3.3
Pilo Alone 4 hrs nVA ([3]; Pilo 0.5%, individual patients): 5 J (3×) and 3 J
Pilo Alone 4 hrs pupil ([3]; Pilo 0.5%, individual patients): 3.3 and 4 and 3 and 4.2
Pilo Alone 1 hr nVA ([3]; Pilo 1%, individual patients): 3 J (2×) and 2 J and 8 J
Pilo Alone 1 hr pupil ([3]; Pilo 1%, individual patients): 2.5 (2×) and 1.5 and 3
Pilo Alone 2 hrs nVA ([3]; Pilo 1%, individual patients): 3 J and 2 J (2×) and 8 J
Pilo Alone 2 hrs pupil ([3]; Pilo 1%, individual patients): 3 (2×) and 1.5 and 2.5
Pilo Alone 4 hrs nVA ([3]; Pilo 1%, individual patients): 5 J (2×) and 3 J and 10 J
Pilo Alone 4 hrs pupil ([3]; Pilo 1%, individual patients): 4 (2×) and 2.5 and 3
Pilo Alone 1 hr nVA ([3]; Pilo .05%, patient 5): 3 J
Pilo Alone 1 hr pupil ([3]; Pilo .05%, patient 5): 2.5
Pilo Alone 4 hrs pupil ([3]; Pilo […], individual patients): 4
